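Tested at 5 concentrations; 48 h exposure; 96-well plates; endpoints linearly interpolated, else capped at highest concentration. The concentration for 50% growth inhibition is given as GI50. TGI denotes the concentration required for complete inhibition of growth.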

Among the test systems are CAKI-1 renal; OVCAR-4 ovarian; SF-295 CNS; HCC-2998 colon; U251 CNS; T-47D breast; COLO 205 colon; NCI-H522 lung; UACC-62 melanoma; MDA-MB-435.
Common to all, as to assay: inhibition of tumour cell growth, NCI panel, 48 h

Consider `CCCOc1ccc2nc(NC(=O)OC)[nH]c2c1`, for which the GI50 in the test with CAKI-1 renal is 0.29 µM; with OVCAR-4 ovarian, 0.6 µM; in the test on SF-295 CNS, 0.215 µM; with HCC-2998 colon, 0.232 µM; in the test on U251 CNS, 0.301 µM; with T-47D breast it was above 100 µM. The GI50 is 0.135 µM with COLO 205 colon, 0.235 µM in the test on NCI-H522 lung, 0.215 µM in the test on UACC-62 melanoma and 0.0284 µM in the test on MDA-MB-435. The TGI with CAKI-1 renal is above 100 µM; in the test with OVCAR-4 ovarian it was above 100 µM; in the test with SF-295 CNS it was above 100 µM; in the test with U251 CNS, above 100 µM; in the test with T-47D breast, above 100 µM; with COLO 205 colon it was 0.505 µM. Moreover, the TGI is 2.28 µM in the test with NCI-H522 lung, above 100 µM in the test on UACC-62 melanoma and 0.11 µM in the test with MDA-MB-435.
As to `CC(CCC(=O)O)C(=O)O` (centres undefined), the TGI in the test on CAKI-1 renal, in the test on OVCAR-4 ovarian, in the test with SF-295 CNS, with HCC-2998 colon, in the test with U251 CNS and with T-47D breast was above 100 µM throughout. In addition, the TGI in the test on COLO 205 colon, in the test on NCI-H522 lung, with UACC-62 melanoma and with MDA-MB-435 was above 100 µM throughout.
As to `CN1C(=O)N(C)C2C1NN=c1s/c(=C\c3ccc(F)cc3)c(=O)n12` (centres undefined), the GI50 was 1.68 µM with CAKI-1 renal; 3.05 µM with OVCAR-4 ovarian; 2.45 µM with SF-295 CNS; 13.4 µM in the test on HCC-2998 colon; 3.06 µM in the test with U251 CNS; 1.25 µM in the test with T-47D breast. The GI50 with COLO 205 colon was 2.51 µM; in the test with NCI-H522 lung it was 2.22 µM; in the test with UACC-62 melanoma, 3.61 µM; in the test with MDA-MB-435 it was 0.361 µM. Further, the TGI with CAKI-1 renal, with OVCAR-4 ovarian, in the test on SF-295 CNS, in the test on HCC-2998 colon, with U251 CNS and in the test on T-47D breast was above 100 µM in each case. Besides, the TGI is above 100 µM with COLO 205 colon, above 100 µM in the test on NCI-H522 lung, above 100 µM with UACC-62 melanoma and 1.71 µM in the test on MDA-MB-435.
For `Cc1[nH]nc(C(=O)n2nc(N)c3ccccc32)c1[N+](=O)[O-]`, the GI50 is above 100 µM in the test on CAKI-1 renal; above 100 µM with OVCAR-4 ovarian; above 100 µM with SF-295 CNS; above 100 µM in the test on HCC-2998 colon; above 57.2 µM in the test on U251 CNS; above 100 µM with T-47D breast. In addition, the GI50 in the test on COLO 205 colon, with NCI-H522 lung, in the test with UACC-62 melanoma and with MDA-MB-435 was above 100 µM each time. The TGI in the test with CAKI-1 renal, in the test with OVCAR-4 ovarian, in the test with SF-295 CNS, in the test with HCC-2998 colon, in the test on U251 CNS and with T-47D breast was above 100 µM throughout. In addition, the TGI with COLO 205 colon, in the test with NCI-H522 lung, in the test on UACC-62 melanoma and in the test with MDA-MB-435 was above 100 µM in each case.
In the case of `COc1ccc2cc(-c3c(-c4ccncc4)nc(-c4ccc(S(C)(=O)=O)cc4C)n3C)ccc2c1`, the GI50 in the test on CAKI-1 renal is 8.73 µM; in the test on OVCAR-4 ovarian, 5.3 µM; with SF-295 CNS, 7.83 µM; with HCC-2998 colon it was 12 µM; in the test with U251 CNS it was 11.2 µM; in the test on T-47D breast, 5.14 µM. For the same compound, the GI50 with COLO 205 colon is 8.25 µM; in the test with NCI-H522 lung, 4.45 µM; with UACC-62 melanoma, 7.95 µM; in the test with MDA-MB-435, 9.18 µM. The TGI in the test on CAKI-1 renal was above 25 µM; with OVCAR-4 ovarian, 22 µM; in the test with SF-295 CNS, above 25 µM; in the test with HCC-2998 colon, above 25 µM; in the test with U251 CNS it was above 25 µM; with T-47D breast it was above 18.6 µM. In addition, the TGI with COLO 205 colon is above 20.1 µM; with NCI-H522 lung, 19 µM; in the test on UACC-62 melanoma it was above 25 µM; in the test with MDA-MB-435, above 25 µM.
`Cc1cc2c(cc1Cl)SC1=NN(C)C(N(C)C)N1S2(=O)=O` (centres undefined): the GI50 in the test on CAKI-1 renal, with OVCAR-4 ovarian, in the test with SF-295 CNS, with HCC-2998 colon, with U251 CNS and in the test with T-47D breast was above 100 µM in each case. In addition, the GI50 with COLO 205 colon, with NCI-H522 lung, in the test on UACC-62 melanoma and with MDA-MB-435 was above 100 µM in each case. Moreover, the TGI in the test with CAKI-1 renal, in the test on OVCAR-4 ovarian, in the test with SF-295 CNS, in the test on HCC-2998 colon, with U251 CNS and in the test on T-47D breast was above 100 µM each time. Moreover, the TGI with COLO 205 colon, in the test with NCI-H522 lung, with UACC-62 melanoma and in the test on MDA-MB-435 was above 100 µM each time.
For the compound `CCOc1cccc(/C=N/NC(=O)C(=O)Nc2cccc(C(F)(F)F)c2)c1O`, the GI50 in the test with CAKI-1 renal was 0.528 µM; with OVCAR-4 ovarian, 0.398 µM; with SF-295 CNS it was 0.372 µM; with HCC-2998 colon, 3.28 µM; with U251 CNS it was 1.46 µM; with T-47D breast, 2.67 µM. Also, the GI50 in the test with COLO 205 colon is 2.43 µM; in the test on NCI-H522 lung, 2.29 µM; with UACC-62 melanoma, 1.06 µM; in the test with MDA-MB-435, 4.16 µM. Besides, the TGI with CAKI-1 renal was 6.49 µM; with OVCAR-4 ovarian, above 100 µM; in the test with SF-295 CNS, 7.97 µM; in the test with HCC-2998 colon, above 100 µM; in the test on U251 CNS it was above 100 µM; with T-47D breast it was 36.1 µM. In addition, the TGI in the test with COLO 205 colon is above 100 µM; in the test with NCI-H522 lung it was above 100 µM; in the test with UACC-62 melanoma it was 4.51 µM; in the test on MDA-MB-435, above 100 µM.
In the case of `Fc1cc2[nH]ncc2c2c3c(c(-c4cn[nH]c4C(F)(F)F)nc12)C1CCC3C1` (centres undefined), the GI50 is 0.602 µM with CAKI-1 renal; 2.68 µM with OVCAR-4 ovarian; 1.21 µM in the test on SF-295 CNS; 1.38 µM in the test on HCC-2998 colon; 1.4 µM with U251 CNS; 0.85 µM in the test with T-47D breast. In addition, the GI50 with COLO 205 colon was 0.874 µM; in the test with NCI-H522 lung, 0.906 µM; with UACC-62 melanoma, 0.878 µM; in the test with MDA-MB-435, 1.52 µM. Besides, the TGI in the test on CAKI-1 renal amounted to 3.51 µM; in the test with OVCAR-4 ovarian, 23.4 µM; in the test on SF-295 CNS, 4.94 µM; in the test on HCC-2998 colon it was 5.57 µM; in the test with U251 CNS it was 5.09 µM; with T-47D breast it was 3.79 µM. Moreover, the TGI in the test on COLO 205 colon stood at 2.24 µM; in the test on NCI-H522 lung it was 3.38 µM; in the test on UACC-62 melanoma, 3.39 µM; with MDA-MB-435, 7.14 µM.

Values taken from PubChem BioAssay (NCI).
